This passage reports AC50 results from ChEMBL document CHEMBL5291721, “A preclinical secondary pharmacology resource illuminates target-adverse drug reaction associations of marketed drugs” (Nat Commun, 2023).

Where only a bound is given, the exact number is not on record here.

The target in assay [1] is T1, Prostaglandin G/H synthase 1 (Rattus norvegicus, UniProt Q63921).
T1 sequence (Q63921 whole entry): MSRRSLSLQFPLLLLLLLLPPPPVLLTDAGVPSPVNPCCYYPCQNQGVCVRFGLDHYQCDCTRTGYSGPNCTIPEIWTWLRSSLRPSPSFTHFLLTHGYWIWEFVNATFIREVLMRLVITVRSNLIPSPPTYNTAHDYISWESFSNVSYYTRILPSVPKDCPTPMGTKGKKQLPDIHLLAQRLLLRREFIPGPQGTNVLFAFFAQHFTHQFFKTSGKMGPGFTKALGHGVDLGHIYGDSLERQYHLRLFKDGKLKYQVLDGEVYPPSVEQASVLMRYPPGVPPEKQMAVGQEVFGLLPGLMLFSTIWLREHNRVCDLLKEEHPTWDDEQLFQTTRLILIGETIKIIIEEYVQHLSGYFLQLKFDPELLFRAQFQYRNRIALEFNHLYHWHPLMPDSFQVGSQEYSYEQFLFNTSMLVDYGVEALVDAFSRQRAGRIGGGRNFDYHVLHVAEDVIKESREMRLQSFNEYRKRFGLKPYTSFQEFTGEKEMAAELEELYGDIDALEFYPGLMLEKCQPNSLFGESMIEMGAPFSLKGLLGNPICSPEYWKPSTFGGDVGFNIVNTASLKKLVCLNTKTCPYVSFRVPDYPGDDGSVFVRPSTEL
Type of assay: functional.

The target in assay [2] is T2, Adenosine receptor A1 (Homo sapiens, UniProt P30542).
T2 sequence (P30542 whole entry): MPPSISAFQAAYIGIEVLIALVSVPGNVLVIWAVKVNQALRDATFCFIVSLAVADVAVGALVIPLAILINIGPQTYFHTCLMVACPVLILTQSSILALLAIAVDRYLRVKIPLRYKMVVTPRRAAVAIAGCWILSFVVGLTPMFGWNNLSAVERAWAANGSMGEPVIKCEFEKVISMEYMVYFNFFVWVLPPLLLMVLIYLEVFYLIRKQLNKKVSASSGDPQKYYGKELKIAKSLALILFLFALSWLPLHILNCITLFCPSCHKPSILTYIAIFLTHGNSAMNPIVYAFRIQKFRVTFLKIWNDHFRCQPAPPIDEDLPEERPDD

Assay [3] concerns the target T3, 5-hydroxytryptamine receptor 1A (Homo sapiens, UniProt P08908).
T3 sequence (P08908 whole entry): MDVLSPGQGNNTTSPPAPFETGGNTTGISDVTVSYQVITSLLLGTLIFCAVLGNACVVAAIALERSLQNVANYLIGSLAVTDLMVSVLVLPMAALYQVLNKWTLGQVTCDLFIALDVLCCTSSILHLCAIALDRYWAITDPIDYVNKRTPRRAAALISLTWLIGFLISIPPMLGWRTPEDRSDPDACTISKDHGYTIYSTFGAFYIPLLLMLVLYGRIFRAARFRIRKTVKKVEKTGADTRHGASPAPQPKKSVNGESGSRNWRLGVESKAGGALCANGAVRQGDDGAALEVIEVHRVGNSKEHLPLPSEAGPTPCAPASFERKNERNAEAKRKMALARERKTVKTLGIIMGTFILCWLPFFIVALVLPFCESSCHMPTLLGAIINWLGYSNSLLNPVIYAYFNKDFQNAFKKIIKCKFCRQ
The class given is functional, cell-based.

The target in assay [4] is cGMP-inhibited 3',5'-cyclic phosphodiesterase 3A (Homo sapiens, UniProt Q14432). Type of assay: functional.
Chain of cGMP-inhibited 3',5'-cyclic phosphodiesterase 3A (Q14432 whole entry): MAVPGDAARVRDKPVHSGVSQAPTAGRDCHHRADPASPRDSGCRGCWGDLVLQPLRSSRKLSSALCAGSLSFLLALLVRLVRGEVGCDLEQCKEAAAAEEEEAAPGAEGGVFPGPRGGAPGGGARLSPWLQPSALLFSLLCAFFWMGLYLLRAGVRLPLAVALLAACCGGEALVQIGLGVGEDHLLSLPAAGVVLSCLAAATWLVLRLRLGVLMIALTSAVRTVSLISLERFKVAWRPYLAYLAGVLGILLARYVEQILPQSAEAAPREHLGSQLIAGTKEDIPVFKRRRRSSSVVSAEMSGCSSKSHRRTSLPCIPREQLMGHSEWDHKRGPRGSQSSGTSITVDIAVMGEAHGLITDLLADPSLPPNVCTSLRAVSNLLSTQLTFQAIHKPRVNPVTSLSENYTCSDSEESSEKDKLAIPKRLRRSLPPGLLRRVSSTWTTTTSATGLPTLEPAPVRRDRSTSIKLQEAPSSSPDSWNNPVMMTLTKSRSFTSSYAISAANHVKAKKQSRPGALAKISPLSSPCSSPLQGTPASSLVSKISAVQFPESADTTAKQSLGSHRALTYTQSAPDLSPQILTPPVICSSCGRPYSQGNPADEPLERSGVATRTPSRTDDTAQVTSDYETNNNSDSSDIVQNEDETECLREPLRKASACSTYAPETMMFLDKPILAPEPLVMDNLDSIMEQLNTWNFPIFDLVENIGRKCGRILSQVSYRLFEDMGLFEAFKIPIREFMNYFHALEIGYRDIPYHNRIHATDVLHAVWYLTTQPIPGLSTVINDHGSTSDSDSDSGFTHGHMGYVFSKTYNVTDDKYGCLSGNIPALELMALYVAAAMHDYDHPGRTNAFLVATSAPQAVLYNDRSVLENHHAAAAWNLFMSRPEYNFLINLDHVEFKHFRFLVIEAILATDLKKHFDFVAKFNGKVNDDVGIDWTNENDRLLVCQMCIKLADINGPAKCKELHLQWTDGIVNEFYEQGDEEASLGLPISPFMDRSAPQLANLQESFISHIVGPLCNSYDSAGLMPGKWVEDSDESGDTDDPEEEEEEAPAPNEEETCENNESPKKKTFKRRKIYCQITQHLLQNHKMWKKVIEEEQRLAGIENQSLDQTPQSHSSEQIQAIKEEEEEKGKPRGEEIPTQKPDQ
Assay [5] deals with T4, Alpha-2C adrenergic receptor (Homo sapiens, UniProt P18825).
T4 sequence (P18825 whole entry): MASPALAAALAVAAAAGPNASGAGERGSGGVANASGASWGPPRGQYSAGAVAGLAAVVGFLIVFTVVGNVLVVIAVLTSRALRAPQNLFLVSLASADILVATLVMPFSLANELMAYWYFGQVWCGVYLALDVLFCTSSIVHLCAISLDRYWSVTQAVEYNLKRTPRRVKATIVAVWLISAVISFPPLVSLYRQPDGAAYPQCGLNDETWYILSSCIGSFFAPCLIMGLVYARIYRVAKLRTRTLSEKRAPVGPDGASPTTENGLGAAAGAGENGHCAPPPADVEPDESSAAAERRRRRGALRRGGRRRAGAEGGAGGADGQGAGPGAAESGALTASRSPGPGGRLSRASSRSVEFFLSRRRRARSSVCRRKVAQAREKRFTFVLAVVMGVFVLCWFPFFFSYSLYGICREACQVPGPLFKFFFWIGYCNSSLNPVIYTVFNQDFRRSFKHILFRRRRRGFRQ
The class given is functional.

For assay [6], the target named is T5, 5-hydroxytryptamine receptor 3A (Homo sapiens, UniProt P46098).
T5 sequence (P46098 whole entry): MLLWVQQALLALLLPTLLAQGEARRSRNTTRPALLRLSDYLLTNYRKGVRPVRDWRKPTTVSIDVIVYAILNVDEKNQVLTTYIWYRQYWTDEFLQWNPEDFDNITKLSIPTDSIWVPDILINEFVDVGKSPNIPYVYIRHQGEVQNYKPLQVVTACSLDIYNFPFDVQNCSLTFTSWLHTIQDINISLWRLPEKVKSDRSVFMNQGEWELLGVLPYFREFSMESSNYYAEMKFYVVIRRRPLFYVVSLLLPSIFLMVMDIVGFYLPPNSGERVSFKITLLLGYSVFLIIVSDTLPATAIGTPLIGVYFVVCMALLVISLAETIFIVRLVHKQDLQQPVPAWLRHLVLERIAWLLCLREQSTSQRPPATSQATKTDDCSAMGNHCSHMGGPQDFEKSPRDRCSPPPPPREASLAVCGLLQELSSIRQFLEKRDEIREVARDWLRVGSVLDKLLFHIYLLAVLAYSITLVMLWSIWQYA
Type of assay: functional.

Assay [7] deals with T6, 5-hydroxytryptamine receptor 2C (Homo sapiens, UniProt P28335).
T6 sequence (P28335 whole entry): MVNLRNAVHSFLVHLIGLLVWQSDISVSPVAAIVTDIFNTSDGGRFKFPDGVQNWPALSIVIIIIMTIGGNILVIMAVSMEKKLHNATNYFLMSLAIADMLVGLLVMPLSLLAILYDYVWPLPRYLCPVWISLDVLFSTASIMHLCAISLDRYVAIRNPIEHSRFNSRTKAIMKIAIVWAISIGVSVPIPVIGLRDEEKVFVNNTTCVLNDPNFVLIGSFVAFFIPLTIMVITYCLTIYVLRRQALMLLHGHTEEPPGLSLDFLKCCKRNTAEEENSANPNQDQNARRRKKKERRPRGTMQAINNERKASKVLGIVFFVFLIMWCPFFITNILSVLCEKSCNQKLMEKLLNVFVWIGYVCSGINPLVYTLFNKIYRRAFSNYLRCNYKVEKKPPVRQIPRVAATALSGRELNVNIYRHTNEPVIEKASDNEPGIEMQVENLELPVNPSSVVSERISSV
Further: assay procedure not described here.

Turning to `CN(C)CCCNc1c2ccccc2nc2cccc([N+](=O)[O-])c12` [NITRACRINE], the AC50 (commonly the midpoint of the concentration-response curve, whichever way the signal moves) is over 30 µM in assay [1]; over 30 µM in assay [2]; over 30 µM in assay [3]; over 30 µM in assay [4]; 5.2 µM in assay [5]; over 30 µM in assay [6]. Further, half-maximal activity in assay [7] (AC50) was put at 2.7 µM.

Take `CCOC(=O)C1=C(C)NC(C)=C(C(=O)OC)C1c1cccc([N+](=O)[O-])c1` (configuration not stated) [NITRENDIPINE]: the AC50 was over 30 µM in assay [1]; over 30 µM in assay [2]; over 10 µM in assay [3]; over 30 µM in assay [4]; over 10 µM in assay [5]; over 30 µM in assay [6]. In addition, the AC50 in assay [7] was over 30 µM.

For `C#C[C@]1(OC(C)=O)CC[C@H]2[C@@H]3CCC4=C/C(=N/O)CC[C@@H]4[C@H]3CC[C@@]21CC` [NORGESTIMATE], the AC50 in assay [1] was 7.8 µM; in assay [2], over 30 µM; in assay [3], over 30 µM; in assay [4], over 30 µM; in assay [5], over 30 µM; in assay [6], over 30 µM. In addition, in assay [7], the AC50 was over 30 µM.

In the case of `[H]/N=C(/N)N/C(=N/[H])NCCc1ccccc1` [PHENFORMIN], the half-maximal activity concentration (AC50) in assay [1] is over 30 µM; in assay [2], over 30 µM; in assay [3] it was over 30 µM; in assay [4], 22 µM; in assay [5] it was over 30 µM; in assay [6] it was over 30 µM. The molecule also had an AC50 in assay [7] of over 30 µM.

As to `CCCCC1C(=O)N(c2ccccc2)N(c2ccccc2)C1=O` [PHENYLBUTAZONE], the AC50 in assay [1] is over 10 µM; in assay [2], over 30 µM; in assay [3], over 10 µM; in assay [4], over 30 µM; in assay [5] it was over 10 µM; in assay [6], over 30 µM. In addition, the AC50 in assay [7] is over 30 µM.

Regarding `CC(N)C(O)c1ccccc1` (configuration not stated) [PHENYLPROPANOLAMINE], the AC50 in assay [1] is over 30 µM; in assay [2], over 30 µM; in assay [3], over 10 µM; in assay [4], over 30 µM; in assay [5], 7.3 µM; in assay [6], over 10 µM. For the same molecule, in assay [7], the AC50 was over 30 µM.

Regarding `Clc1ccc2c(N3CCN(CCCN4CCN(c5ccnc6cc(Cl)ccc56)CC4)CC3)ccnc2c1` [PIPERAQUINE], the AC50 in assay [1] is over 30 µM; in assay [2] it was over 30 µM; in assay [3], over 30 µM; in assay [4], 4.7 µM; in assay [5], over 30 µM; in assay [6], over 30 µM. Moreover, the concentration at half-maximal activity (AC50) in assay [7] was over 30 µM.

For `CCCN[C@H]1CCc2nc(N)sc2C1` [PRAMIPEXOLE], the AC50 in assay [1] is over 30 µM; in assay [2] it was over 30 µM; in assay [3] it was 16 µM; in assay [4], over 30 µM; in assay [5], over 10 µM; in assay [6] it was over 30 µM. The AC50 in assay [7] was over 30 µM.

Turning to `Cc1noc(NS(=O)(=O)c2ccc(N)cc2)c1C` [SULFISOXAZOLE], the AC50 in assay [1] is over 10 µM; in assay [2], over 10 µM; in assay [3], over 10 µM; in assay [4], over 30 µM; in assay [5], over 10 µM; in assay [6], over 30 µM. The molecule further came in with an AC50 in assay [7] of over 30 µM.

Consider `CC1(C)S[C@@H]2[C@H](NC(=O)[C@H](N)c3ccccc3)C(=O)N2[C@H]1C(=O)OCOC(=O)[C@@H]1N2C(=O)C[C@H]2S(=O)(=O)C1(C)C` [SULTAMICILLIN], for which the AC50 in assay [1], in assay [2], in assay [3], in assay [4], in assay [5] and in assay [6] was over 30 µM throughout. The AC50 in assay [7] is over 30 µM.

For `CCC(=O)O[C@H]1CC[C@H]2[C@@H]3CCC4=CC(=O)CC[C@]4(C)[C@H]3CC[C@]12C` [TESTOSTERONE PROPIONATE], the AC50 in assay [1] was over 10 µM; in assay [2], over 10 µM; in assay [3] it was over 10 µM; in assay [4], over 10 µM; in assay [5], over 10 µM; in assay [6], over 30 µM. Also, the AC50 in assay [7] was over 30 µM.

As for `Clc1ccc(C(Cn2ccnc2)OCc2ccsc2Cl)c(Cl)c1` (configuration not stated) [TIOCONAZOLE], the AC50 was 12.4 µM in assay [1]; over 30 µM in assay [2]; over 30 µM in assay [3]; 17 µM in assay [4]; 6.5 µM in assay [5]; over 30 µM in assay [6]. Further, the AC50 in assay [7] is over 30 µM.

Consider `Cc1cccc(N2CC(CO)OC2=O)c1` (configuration not stated) [TOLOXATONE], for which the AC50 in assay [1], in assay [2], in assay [3], in assay [4], in assay [5] and in assay [6] was over 30 µM throughout. The AC50 in assay [7] is over 30 µM.

For `Cc1cc2cc3c(C)cc(=O)oc3c(C)c2o1` [TRIOXSALEN], the AC50 in assay [1] is over 10 µM; in assay [2], over 30 µM; in assay [3], over 10 µM; in assay [4], over 30 µM; in assay [5] it was over 10 µM; in assay [6] it was over 30 µM. The AC50 in assay [7] was over 30 µM.

As to `CC(C)[C@H](N)C(=O)OCC(CO)OCn1cnc2c(=O)nc(N)[nH]c21` (some centres not stated) [VALGANCICLOVIR], the half-maximal activity concentration (AC50) in assay [1] is over 30 µM; in assay [2], over 30 µM; in assay [3] it was over 30 µM; in assay [4], 7 µM; in assay [5] it was over 30 µM; in assay [6], over 30 µM. In addition, the AC50 in assay [7] was over 30 µM.

Turning to `CCC(C)C(CC)C(N)=O` (configuration not stated) [VALNOCTAMIDE], the concentration at half-maximal activity (AC50) in assay [1], in assay [2], in assay [3], in assay [4], in assay [5] and in assay [6] was over 30 µM throughout. In assay [7], the concentration at half-maximal activity (AC50) was over 30 µM.
